Positions of bridges follow the written chain, without caps; N, C: chain ends. Non-standard residues stand in square brackets, D forms with d. Residues, ends and D or L forms follow the SMILES beside them. No end group written: not given here. pY = N[C@@H](Cc1ccc(OP(=O)(O)O)cc1)C(=O)O
Experiments:
[1] = molecular target: Abl kinase (Homo sapiens, UniProt P00519); experiment: BacKin assay, inhibition of phosphorylation of abltide displayed on E. coli; type: biochemical; conditions: 32 μM peptide, Abl kinase 0.2 U/mL, 37 °C, 30 min
Chain of Abl kinase (P00519 whole entry): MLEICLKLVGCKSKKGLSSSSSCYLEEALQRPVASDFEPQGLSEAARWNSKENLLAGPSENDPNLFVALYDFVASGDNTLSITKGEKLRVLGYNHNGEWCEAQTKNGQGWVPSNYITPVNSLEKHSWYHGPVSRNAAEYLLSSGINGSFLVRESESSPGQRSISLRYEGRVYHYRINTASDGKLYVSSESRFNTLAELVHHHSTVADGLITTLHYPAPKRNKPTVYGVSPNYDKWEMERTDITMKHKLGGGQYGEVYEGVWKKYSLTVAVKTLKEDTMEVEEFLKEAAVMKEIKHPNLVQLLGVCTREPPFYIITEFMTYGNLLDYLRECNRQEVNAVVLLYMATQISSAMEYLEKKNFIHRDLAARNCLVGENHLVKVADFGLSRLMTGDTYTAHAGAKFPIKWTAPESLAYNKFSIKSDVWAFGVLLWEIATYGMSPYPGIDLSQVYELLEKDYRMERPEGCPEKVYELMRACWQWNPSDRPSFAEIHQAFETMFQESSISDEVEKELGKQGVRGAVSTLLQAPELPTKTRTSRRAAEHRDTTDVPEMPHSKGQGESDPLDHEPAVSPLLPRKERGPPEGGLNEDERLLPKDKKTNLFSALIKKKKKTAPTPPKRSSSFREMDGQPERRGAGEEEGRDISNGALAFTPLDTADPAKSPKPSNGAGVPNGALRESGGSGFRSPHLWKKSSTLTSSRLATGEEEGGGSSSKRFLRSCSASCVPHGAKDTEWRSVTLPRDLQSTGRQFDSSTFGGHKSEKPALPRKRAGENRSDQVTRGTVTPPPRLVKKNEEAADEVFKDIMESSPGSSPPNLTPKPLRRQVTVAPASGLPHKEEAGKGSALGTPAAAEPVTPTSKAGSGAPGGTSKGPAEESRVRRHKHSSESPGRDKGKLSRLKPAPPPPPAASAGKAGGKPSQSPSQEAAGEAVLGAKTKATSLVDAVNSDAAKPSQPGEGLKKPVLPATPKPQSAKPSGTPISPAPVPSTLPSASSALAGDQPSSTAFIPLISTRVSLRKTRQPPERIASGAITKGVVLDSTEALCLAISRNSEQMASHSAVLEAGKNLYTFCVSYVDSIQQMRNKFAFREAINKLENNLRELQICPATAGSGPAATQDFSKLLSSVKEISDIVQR

[2] = Serum stability assay; conditions: 100% human serum, 37 °C
Description: All peptides were tested at a final concentration of 30 μM in 100% human serum. […] Reactions were stopped at the stipulated times and the serum proteins in each sample were denatured and precipitated, followed by centrifugation at 17,000 g for 10 min to separate the serum proteins from peptide samples. […] The elution time for each peptide was determined by the PBS control from 0 time point. The percentage of peptide remaining at each time point was calculated using the height of the serum-treated peptide peak from time 0 as 100% recovery.

## CC[C@H](C)[C@@H]1NC(=O)[C@H](C)NC(=O)[C@H](CCC(=O)O)NC(=O)[C@@H]2CSSC[C@@H]3NC(=O)[C@H](CC(=O)O)NC(=O)[C@H](CO)NC(=O)[C@H](CC(=O)O)NC(=O)[C@H](CCCNC(=N)N)NC(=O)[C@H](CCCNC(=N)N)NC(=O)[C@@H]4CSSC[C@H](NC(=O)[C@H]([C@@H](C)CC)NC(=O)[C@H](CSSC[C@H](NC(=O)CNC(=O)[C@H](C)NC(=O)[C@H](Cc5ccccc5)NC(=O)[C@@H]5CCCN5C(=O)[C@H](C)NC(=O)[C@H](C)NC(=O)[C@H](Cc5ccc(O)cc5)NC1=O)C(=O)N1CCC[C@H]1C(=O)N[C@@H](CCCCN)C(=O)N[C@@H]([C@@H](C)CC)C(=O)N[C@@H](CC(C)C)C(=O)N[C@@H](CCCCN)C(=O)N[C@@H](CCCCN)C(=O)N4)NC(=O)[C@H](C)NC(=O)CNC(=O)[C@@H]1CCCN1C3=O)C(=O)N[C@@H](CCCNC(=N)N)C(=O)NCC(=O)N[C@@H](CC(N)=O)C(=O)NCC(=O)N[C@@H](Cc1ccc(O)cc1)C(=O)N2 [MTAbl03] (cyclo(AAPFAGCPKILKKCRRDSDCPGACICRGNGYCEAIY); disulfide 7-24, 14-26, 20-32)
[1]
  percentage of Abl kinase inhibition: 50%

## CC[C@H](C)[C@@H]1NC(=O)[C@H](C)NC(=O)[C@H](CCC(=O)O)NC(=O)CNC(=O)[C@@H]2CSSC[C@@H]3NC(=O)[C@H](CC(=O)O)NC(=O)[C@H](CO)NC(=O)[C@H](CC(=O)O)NC(=O)[C@H](CCCNC(=N)N)NC(=O)[C@H](CCCNC(=N)N)NC(=O)[C@@H]4CSSC[C@H](NC(=O)[C@H]([C@@H](C)CC)NC(=O)[C@H](CSSC[C@H](NC(=O)[C@H](CCCCN)NC(=O)[C@H](C)NC(=O)[C@H](Cc5ccccc5)NC(=O)[C@@H]5CCCN5C(=O)[C@H](C)NC(=O)[C@H](C)NC(=O)[C@H](Cc5ccc(O)cc5)NC1=O)C(=O)N1CCC[C@H]1C(=O)N[C@@H](CCCCN)C(=O)N[C@@H]([C@@H](C)CC)C(=O)N[C@@H](CC(C)C)C(=O)N[C@@H](CCCCN)C(=O)N[C@@H](CCCCN)C(=O)N4)NC(=O)[C@H](C)NC(=O)CNC(=O)[C@@H]1CCCN1C3=O)C(=O)N[C@@H](CCCNC(=N)N)C(=O)NCC(=O)N[C@@H](CC(N)=O)C(=O)NCC(=O)N[C@@H](Cc1ccc(O)cc1)C(=O)N2 [MTAbl05] (cyclo(AAPFAKCPKILKKCRRDSDCPGACICRGNGYCGEAIY); disulfide 7-24, 14-26, 20-32)
[1]
  percentage of Abl kinase inhibition: ~ 90%

## CC[C@H](C)[C@@H]1NC(=O)[C@H](C)NC(=O)[C@H](CCC(=O)O)NC(=O)CNC(=O)[C@@H]2CSSC[C@@H]3NC(=O)[C@H](CC(=O)O)NC(=O)[C@H](CO)NC(=O)[C@H](CC(=O)O)NC(=O)[C@H](CCCNC(=N)N)NC(=O)[C@H](CCCNC(=N)N)NC(=O)[C@@H]4CSSC[C@H](NC(=O)[C@H]([C@@H](C)CC)NC(=O)[C@H](CSSC[C@H](NC(=O)[C@H](CCCNC(=N)N)NC(=O)[C@H](C)NC(=O)[C@H](Cc5ccccc5)NC(=O)[C@@H]5CCCN5C(=O)[C@H](C)NC(=O)[C@H](C)NC(=O)[C@H](Cc5ccc(OP(=O)(O)O)cc5)NC1=O)C(=O)N1CCC[C@H]1C(=O)N[C@@H](CCCCN)C(=O)N[C@@H]([C@@H](C)CC)C(=O)N[C@@H](CC(C)C)C(=O)N[C@@H](CCCCN)C(=O)N[C@@H](CCCCN)C(=O)N4)NC(=O)[C@H](C)NC(=O)CNC(=O)[C@@H]1CCCN1C3=O)C(=O)N[C@@H](CCCNC(=N)N)C(=O)NCC(=O)N[C@@H](CC(N)=O)C(=O)NCC(=O)N[C@@H](Cc1ccc(O)cc1)C(=O)N2 [MTAbl12] (cyclo(AAPFARCPKILKKCRRDSDCPGACICRGNGYCGEAI[pY]); disulfide 7-24, 14-26, 20-32)
[2]; 24 h, one-way ANOVA, three replicates
  stability in human serum (in words; comparison to MCoTI-II at 24 h): lower stability

## CC[C@H](C)[C@@H]1NC(=O)[C@H](C)NC(=O)[C@H](CCC(=O)O)NC(=O)CNC(=O)[C@@H]2CSSC[C@@H]3NC(=O)[C@H](CC(=O)O)NC(=O)[C@H](CO)NC(=O)[C@H](CC(=O)O)NC(=O)[C@H](CCCNC(=N)N)NC(=O)[C@H](CCCNC(=N)N)NC(=O)[C@@H]4CSSC[C@H](NC(=O)[C@H]([C@@H](C)CC)NC(=O)[C@H](CSSC[C@H](NC(=O)[C@H](C)NC(=O)[C@H](Cc5ccccc5)NC(=O)[C@@H]5CCCN5C(=O)[C@H](C)NC(=O)[C@H](C)NC(=O)[C@H](Cc5ccc(O)cc5)NC1=O)C(=O)N1CCC[C@H]1C(=O)N[C@@H](CCCCN)C(=O)N[C@@H]([C@@H](C)CC)C(=O)N[C@@H](CC(C)C)C(=O)N[C@@H](CCCCN)C(=O)N[C@@H](CCCCN)C(=O)N4)NC(=O)[C@H](C)NC(=O)CNC(=O)[C@@H]1CCCN1C3=O)C(=O)N[C@@H](CCCNC(=N)N)C(=O)NCC(=O)N[C@@H](CC(N)=O)C(=O)NCC(=O)N[C@@H](Cc1ccc(O)cc1)C(=O)N2 [MTAbl01] (cyclo(AAPFACPKILKKCRRDSDCPGACICRGNGYCGEAIY); disulfide 6-23, 13-25, 19-31)
[1]
  percentage of Abl kinase inhibition: 75%

## CC[C@H](C)[C@@H]1NC(=O)[C@H](C)NC(=O)[C@H](CCC(=O)O)NC(=O)[C@@H]2CSSC[C@@H]3NC(=O)[C@H](CC(=O)O)NC(=O)[C@H](CO)NC(=O)[C@H](CC(=O)O)NC(=O)[C@H](CCCNC(=N)N)NC(=O)[C@H](CCCNC(=N)N)NC(=O)[C@@H]4CSSC[C@H](NC(=O)[C@H]([C@@H](C)CC)NC(=O)[C@H](CSSC[C@H](NC(=O)[C@H](CCCCN)NC(=O)[C@H](C)NC(=O)[C@H](Cc5ccccc5)NC(=O)[C@@H]5CCCN5C(=O)[C@H](C)NC(=O)[C@H](C)NC(=O)[C@H](Cc5ccc(O)cc5)NC1=O)C(=O)N1CCC[C@H]1C(=O)N[C@@H](CCCCN)C(=O)N[C@@H]([C@@H](C)CC)C(=O)N[C@@H](CC(C)C)C(=O)N[C@@H](CCCCN)C(=O)N[C@@H](CCCCN)C(=O)N4)NC(=O)[C@H](C)NC(=O)CNC(=O)[C@@H]1CCCN1C3=O)C(=O)N[C@@H](CCCNC(=N)N)C(=O)NCC(=O)N[C@@H](CC(N)=O)C(=O)NCC(=O)N[C@@H](Cc1ccc(O)cc1)C(=O)N2 [MTAbl04] (cyclo(AAPFAKCPKILKKCRRDSDCPGACICRGNGYCEAIY); disulfide 7-24, 14-26, 20-32)
[1]
  percentage of Abl kinase inhibition: ~ 50%

## CC[C@H](C)[C@@H]1NC(=O)[C@H](C)NC(=O)[C@H](CCC(=O)O)NC(=O)CNC(=O)[C@@H]2CSSC[C@@H]3NC(=O)[C@H](CC(=O)O)NC(=O)[C@H](CO)NC(=O)[C@H](CC(=O)O)NC(=O)[C@H](CCCNC(=N)N)NC(=O)[C@H](CCCNC(=N)N)NC(=O)[C@@H]4CSSC[C@H](NC(=O)[C@H]([C@@H](C)CC)NC(=O)[C@H](CSSC[C@H](NC(=O)CNC(=O)[C@H](C)NC(=O)[C@H](Cc5ccccc5)NC(=O)[C@@H]5CCCN5C(=O)[C@H](C)NC(=O)[C@H](C)NC(=O)[C@H](Cc5ccc(O)cc5)NC1=O)C(=O)N1CCC[C@H]1C(=O)N[C@@H](CCCCN)C(=O)N[C@@H]([C@@H](C)CC)C(=O)N[C@@H](CC(C)C)C(=O)N[C@@H](CCCCN)C(=O)N[C@@H](CCCCN)C(=O)N4)NC(=O)[C@H](C)NC(=O)CNC(=O)[C@@H]1CCCN1C3=O)C(=O)N[C@@H](CCCNC(=N)N)C(=O)NCC(=O)N[C@@H](CC(N)=O)C(=O)NCC(=O)N[C@@H](Cc1ccc(O)cc1)C(=O)N2 [MTAbl02] (cyclo(AAPFAGCPKILKKCRRDSDCPGACICRGNGYCGEAIY); disulfide 7-24, 14-26, 20-32)
[1]
  percentage of Abl kinase inhibition: 90%

## EAIYAAPFAKKK [abltide, reference compound]
[2]; 30 μM peptide, RP-HPLC
  time to complete degradation in human serum: ≤ 1 h

Reference: article PMC4532999 (Scientific Reports, 2015)
